For orientation: GI50 means the concentration giving 50% growth inhibition.

Converted amounts (≈) assume the structure as drawn.

These results are taken from ChEMBL document CHEMBL1141781, “Antineoplastic agents. 542. Isolation and structure of sesterstatin 6 from the Indian Ocean sponge Hyrtios erecta” (2005).

What all share (assay type): functional
In one experiment the test system is P388. The experiment can be described thus: Growth inhibition of mouse P388 cells. To be noted: read-out: ED50 (the source's name).
A further experiment relates to BXPC-3. Put plainly: Growth inhibition of human BxPC3 cells.
A further experiment concerns RPMI-7951. The experiment can be described thus: Growth inhibition of human RPMI7951 cells.
The test system of another experiment is U-251. Put plainly: Growth inhibition of human U251 cells.
The subject of another experiment is NCI-H460. Put plainly: Growth inhibition of human NCI-H460 cells.
The next experiment relates to FaDu. The experiment can be described thus: Growth inhibition of human FADU cells.
In another experiment the test system is DU-145. The experiment can be described thus: Growth inhibition of human DU145 cells.
A short description of experiment [1]: Growth inhibition of human KAT4 cells. The note with it: KAT-4.
A further experiment concerns SW-1736. Put plainly: Growth inhibition of human SW1736 cells.

With `CC1(C)CCC[C@]2(C)[C@H]3C[C@@H](O)[C@]4(C)c5cocc5[C@@H](O)C[C@H]4[C@]3(C)CC[C@@H]12` [SESTERSTATIN 5], in the experiment on P388, the EC50 was over 10 µg/mL. In addition, the 50% growth inhibitory concentration (GI50) in the experiment on BXPC-3 stood at 2.2 µg/mL (≈ 5.69 µM); in the experiment on RPMI-7951, 2.1 µg/mL (≈ 5.43 µM); with U-251, 1.9 µg/mL (≈ 4.91 µM); in the experiment with NCI-H460, 2.5 µg/mL (≈ 6.47 µM); in the experiment with FaDu, 1.9 µg/mL (≈ 4.91 µM); in the experiment on DU-145 it was 1.9 µg/mL (≈ 4.91 µM).

For `CC1(C)CCC[C@]2(C)[C@H]3C[C@@H](O)[C@]4(C)c5cocc5[C@H](O)C[C@H]4[C@]3(C)CC[C@@H]12` [SESTERSTATIN 4], the EC50 in the experiment with P388 was 4.9 µg/mL (≈ 12.7 µM). The GI50 in the experiment on BXPC-3 stood at 1.6 µg/mL (≈ 4.14 µM); in experiment [1], 2 µg/mL (≈ 5.17 µM); with SW-1736, 2.1 µg/mL (≈ 5.43 µM); in the experiment on NCI-H460, 1.8 µg/mL (≈ 4.66 µM); with FaDu, 2 µg/mL (≈ 5.17 µM); in the experiment with DU-145, 1.6 µg/mL (≈ 4.14 µM).

As to `CC1(C)[C@@H](O)CC[C@]2(C)[C@H]3C[C@@H](O)[C@]4(C)C5=C(CC[C@H]4[C@]3(C)CC[C@@H]12)COC5=O` [SESTERSTATIN 1], in the experiment on P388, the EC50 is 0.46 µg/mL (≈ 1.14 µM).

For the compound `C[C@]1(CO)CCC[C@]2(C)[C@H]3C[C@@H](O)[C@]4(C)C5=C(CC[C@H]4[C@]3(C)CC[C@@H]12)COC5=O` [SESTERSTATIN 2], the EC50 with P388 stood at 4.2 µg/mL (≈ 10.4 µM).

`C[C@@]1(CO)CCC[C@]2(C)[C@H]3C[C@@H](O)[C@]4(C)C5=C(CC[C@H]4[C@]3(C)CC[C@@H]12)COC5=O` [SESTERSTATIN 3]: in the experiment with P388, the EC50 came to 4.3 µg/mL (≈ 10.7 µM).

In the case of `CC1(C)CCC[C@]2(C)[C@H]3C[C@@H](O)[C@]4(C)C5=C(C(=O)O[C@H]5O)[C@@H](O)C[C@H]4[C@]3(C)CC[C@@H]12` [SESTERSTATIN 6], the EC50 in the experiment with P388 was found to be 0.17 µg/mL (≈ 0.406 µM). Also, the GI50 with BXPC-3 stood at 0.44 µg/mL (≈ 1.05 µM); in experiment [1] it was 0.4 µg/mL (≈ 0.956 µM); in the experiment on SW-1736, 0.87 µg/mL (≈ 2.08 µM); in the experiment on NCI-H460, 0.18 µg/mL (≈ 0.43 µM); in the experiment with FaDu, 0.89 µg/mL (≈ 2.13 µM); in the experiment on DU-145, 0.37 µg/mL (≈ 0.884 µM).
